Data published in EPA's ToxValDB 9.5 (doi:10.2903/j.efsa.2013.3461).
In brackets after ≈: the same amount, converted by molar mass.

Legend:
Rattus norvegicus = settings: for LD50: acute, oral, mortality
Anas platyrhynchos = settings: short-term; oral; feed; mortality
Apis mellifera = settings: acute, duration: 48 hours, mortality
Bibionidae = settings: chronic/long-term; duration: 28 days; development
Canidae = settings: oral, Dog Other, hematological
Daphnia magna = settings: chronic/long-term; duration: 21 days; reproduction

SMILES | LD50 (Rattus norvegicus) | LC50 (Anas platyrhynchos) | LD50 (Apis mellifera; dermal) | LD50 (Apis mellifera; oral, unspecified) | NOEC (Bibionidae) | NOAEL (Canidae; chronic, duration: 52 weeks) | NOAEL (Canidae; subchronic, duration: 90 days) | LC50 (Colinus virginianus; acute, oral, diet, mortality) | LD50 (Colinus virginianus; acute, oral, mortality) | NOEC (Colinus virginianus; reproduction developmental, reproduction) | NOEC (Daphnia magna) | LC50 (Oncorhynchus mykiss; acute, duration: 96 hours, mortality) | NOEC (Oncorhynchus mykiss; chronic/long-term, duration: 28 days, growth) | NOEL (Rattus norvegicus; reproduction developmental, histopathology: nonneoplastic) | LC50 (Tagia sp.; acute, duration: 14 days, mortality) | NOEC (Tagia sp.; chronic/long-term, duration: 8 weeks, reproduction)
Cc1cc(C)cc(C(=O)N(NC(=O)c2ccc3c(c2C)C(O)CCO3)C(C)(C)C)c1 (configuration not stated) [Chromafenozide metabolite (M 010)] | > 2000 mg/kg | – | – | – | – | – | – | – | – | – | – | – | – | – | – | –
Cc1cc(C)cc(C(=O)N(NC(=O)c2ccc3c(c2C)CCCO3)C(C)(C)C)c1 [Chromafenozide] | > 5000 mg/kg | > 2160 mg/kg-day | > 100 µg/piece | > 133 µg/piece | 0.047 mg/kg | 27 mg/kg-day | 52 mg/kg-day | > 1840 mg/kg-day | > 2000 mg/kg | 79 mg/kg-day | 0.84 mg/L | 4.5 mg/L (≈ 11.4 µM) | 0.96 mg/L | 128 mg/kg-day | > 1000 mg/kg | 49 mg/kg
